In patent publication US9073855B2, “BCL-2 selective apoptosis-inducing agents for the treatment of cancer and immune diseases” (AbbVie Inc., priority 2008, dated 2015) one finds EC50 and Ki data, which are given here for 12 compounds.

The test system of test [1] is FL5.12/Bcl-2 cells. Briefly: FL5.12/Bcl-2 cell viability assay under IL-3 withdrawal (CellTitre Glo). It counts as cell-based, murine. To be noted: Mus musculus, IL-3 withdrawn 48 hrs, then 24 hrs with compound. The essentials: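 Cells (1×10^6/ml) are washed, resuspended in medium lacking WEHI-3B conditioned medium as IL-3 source, and held 48 hrs. Compounds are then added at a range of concentrations for 24 hrs, after which CellTitre Glo reports viability.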

Test [2] addresses GST-Bcl-XL (Homo sapiens, UniProt Q07817). Briefly: TR-FRET binding assay, GST-Bcl-XL with F-Bak peptide probe. To be noted: TR-FRET Binding Affinity, GST-Bcl-XL, F-Bak peptide probe. The method in brief:
(§1)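 Ki was derived with Wang's equation for competitive binding of two ligands. The read-out was time-resolved fluorescence after a 3 h room-temperature incubation, using a Tb-labelled antibody donor and the F-Bak peptide acceptor (excitation 340/35 nm). Test compounds entered as DMSO serial dilutions starting at 50 μM, which was the 2× concentration.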

The target in test [3] is GST-Bcl-2 (Homo sapiens, UniProt P10415). Briefly: TR-FRET binding assay, GST-Bcl-2 with F-Bak peptide probe. As to conditions: TR-FRET Binding Affinity, GST-Bcl-2, F-Bak peptide probe. The method in brief: as §1
A general note: In TR-FRET formats the signal depends on donor and acceptor labels being close together.

Bounds are passed on as bounds.

Sequence of GST-Bcl-XL (Q07817 whole entry): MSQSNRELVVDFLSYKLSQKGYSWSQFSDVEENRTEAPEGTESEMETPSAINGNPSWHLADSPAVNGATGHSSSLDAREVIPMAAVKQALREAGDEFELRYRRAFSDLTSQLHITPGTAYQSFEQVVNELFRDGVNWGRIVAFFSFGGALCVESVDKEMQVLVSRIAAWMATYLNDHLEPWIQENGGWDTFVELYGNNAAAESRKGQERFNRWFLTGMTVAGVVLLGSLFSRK
Sequence of GST-Bcl-2 (P10415 whole entry): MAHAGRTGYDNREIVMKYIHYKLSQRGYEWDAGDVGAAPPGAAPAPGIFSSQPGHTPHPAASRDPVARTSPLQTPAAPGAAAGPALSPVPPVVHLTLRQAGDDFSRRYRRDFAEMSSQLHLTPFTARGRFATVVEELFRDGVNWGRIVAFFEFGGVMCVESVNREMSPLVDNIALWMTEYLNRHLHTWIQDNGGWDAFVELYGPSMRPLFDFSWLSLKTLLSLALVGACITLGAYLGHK

For the compound `CC1(C)CCC(CN2CCN(c3ccc(C(=O)NS(=O)(=O)c4ccc(NCC5CCOCC5)c(C#N)c4)c(Oc4cccc5[nH]ccc45)c3)CC2)=C(c2ccc(Cl)cc2)C1` [Example 366, 4-(4-{[2-(4-chlorophenyl)-4,4-dimethylcyclohex-1-en-1-yl]methyl}piperazin-1-yl)-N-({3-cyano-4-[(tetrahydro-2H-pyran-4-ylmethyl)amino]phenyl}sulfonyl)-2-(1H-indol-4-yloxy)benzamide], the EC50 (usually the midpoint of the concentration-response curve) in test [1] is > 500 nM. Further, the inhibitory constant (Ki) (as a rule, the equilibrium dissociation constant of an inhibitor or competing ligand from its target) in test [2] was > 660 nM; in test [3], 5.46 nM.

With `CC1(C)CCC(CN2CCN(c3ccc(C(=O)NS(=O)(=O)c4ccc(NCC5CCOCC5)c(C#N)c4)c(Oc4ccc5[nH]ccc5c4)c3)CC2)=C(c2ccc(Cl)cc2)C1` [Example 367, 4-(4-{[2-(4-chlorophenyl)-4,4-dimethylcyclohex-1-en-1-yl]methyl}piperazin-1-yl)-N-({3-cyano-4-[(tetrahydro-2H-pyran-4-ylmethyl)amino]phenyl}sulfonyl)-2-(1H-indol-5-yloxy)benzamide], the EC50 in test [1] is > 500 nM. Also, the Ki is > 660 nM in test [2] and 4.61 nM in test [3].

For the compound `CC(C)(C)CCNc1ccc(S(=O)(=O)NC(=O)c2ccc(N3CCN(CC4=C(c5ccc(Cl)cc5)CC(C)(C)CC4)CC3)cc2Oc2ccc3[nH]ccc3c2)cc1[N+](=O)[O-]` [Example 368, 4-(4-{[2-(4-chlorophenyl)-4,4-dimethylcyclohex-1-en-1-yl]methyl}piperazin-1-yl)-N-({4-[(3,3-dimethylbutyl)amino]-3-nitrophenyl}sulfonyl)-2-(1H-indol-5-yloxy)benzamide], the EC50 in test [1] is > 500 nM. The Ki is > 660 nM in test [2] and > 1200 nM in test [3].

Take `CC(C)C[C@@H](CO)Nc1ccc(S(=O)(=O)NC(=O)c2ccc(N3CCN(CC4=C(c5ccc(Cl)cc5)CC(C)(C)CC4)CC3)cc2Oc2ccc3[nH]ccc3c2)cc1[N+](=O)[O-]` [Example 369, 4-(4-{[2-(4-chlorophenyl)-4,4-dimethylcyclohex-1-en-1-yl]methyl}piperazin-1-yl)-N-[(4-{[(1S)-1-(hydroxymethyl)-3-methylbutyl]amino}-3-nitrophenyl)sulfonyl]-2-(1H-indol-5-yloxy)benzamide]: the 50% effective concentration (EC50) in test [1] was > 500 nM. In addition, the Ki in test [2] was > 660 nM; in test [3] it was 838 nM.

Turning to `CC1(C)CCC(CN2CCN(c3ccc(C(=O)NS(=O)(=O)c4ccc(NC[C@H]5CCCO5)c([N+](=O)[O-])c4)c(Oc4ccc5[nH]ccc5c4)c3)CC2)=C(c2ccc(Cl)cc2)C1` [Example 370, 4-(4-{[2-(4-chlorophenyl)-4,4-dimethylcyclohex-1-en-1-yl]methyl}piperazin-1-yl)-2-(1H-indol-5-yloxy)-N-[(3-nitro-4-{[(2R)-tetrahydrofuran-2-ylmethyl]amino}phenyl)sulfonyl]benzamide], the concentration for a half-maximal effect (EC50) in test [1] was determined as 263 nM. For the same compound, the inhibition constant Ki was > 660 nM in test [2] and 0.904 nM in test [3].

As to `CC(C)[C@H](CO)Nc1ccc(S(=O)(=O)NC(=O)c2ccc(N3CCN(CC4=C(c5ccc(Cl)cc5)CC(C)(C)CC4)CC3)cc2Oc2ccc3[nH]ccc3c2)cc1[N+](=O)[O-]` [Example 371, 4-(4-{[2-(4-chlorophenyl)-4,4-dimethylcyclohex-1-en-1-yl]methyl}piperazin-1-yl)-N-[(4-{[(1R)-1-(hydroxymethyl)-2-methylpropyl]amino}-3-nitrophenyl)sulfonyl]-2-(1H-indol-5-yloxy)benzamide], in test [1], the EC50 was > 500 nM. Further, the inhibition constant (Ki) is > 660 nM in test [2] and 8.38 nM in test [3].

`COc1ccc(Nc2ccc(S(=O)(=O)NC(=O)c3ccc(N4CCN(CC5=C(c6ccc(Cl)cc6)CC(C)(C)CC5)CC4)cc3Oc3ccc4[nH]ccc4c3)cc2[N+](=O)[O-])cc1` [Example 372, 4-(4-{[2-(4-chlorophenyl)-4,4-dimethylcyclohex-1-en-1-yl]methyl}piperazin-1-yl)-2-(1H-indol-5-yloxy)-N-({4-[(4-methoxyphenyl)amino]-3-nitrophenyl}sulfonyl)benzamide]: the 50% effective concentration (EC50) in test [1] was > 500 nM. In addition, the Ki in test [2] was > 660 nM; in test [3], > 1200 nM.

Turning to `CC1(C)CCC(CN2CCN(c3ccc(C(=O)NS(=O)(=O)c4ccc(NCCCN5CCCC5=O)c([N+](=O)[O-])c4)c(Oc4ccc5[nH]ccc5c4)c3)CC2)=C(c2ccc(Cl)cc2)C1` [Example 374, 4-(4-{[2-(4-chlorophenyl)-4,4-dimethylcyclohex-1-en-1-yl]methyl}piperazin-1-yl)-2-(1H-indol-5-yloxy)-N-[(3-nitro-4-{[3-(2-oxopyrrolidin-1-yl)propyl]amino}phenyl)sulfonyl]benzamide], the 50% effective concentration (EC50) in test [1] was > 500 nM. In addition, the Ki in test [2] was > 660 nM; in test [3], 2.27 nM.

Take `CC1(C)CCC(CN2CCN(c3ccc(C(=O)NS(=O)(=O)c4ccc(Nc5ccc(O)cc5)c([N+](=O)[O-])c4)c(Oc4ccc5[nH]ccc5c4)c3)CC2)=C(c2ccc(Cl)cc2)C1` [Example 375, 4-(4-{[2-(4-chlorophenyl)-4,4-dimethylcyclohex-1-en-1-yl]methyl}piperazin-1-yl)-N-({4-[(4-hydroxyphenyl)amino]-3-nitrophenyl}sulfonyl)-2-(1H-indol-5-yloxy)benzamide]: the EC50 in test [1] was > 500 nM. Also, the Ki in test [2] was > 660 nM; in test [3] it was 11.3 nM.

With `CC1(C)CCC(CN2CCN(c3ccc(C(=O)NS(=O)(=O)c4ccc(NCCc5ccc(S(N)(=O)=O)cc5)c([N+](=O)[O-])c4)c(Oc4ccc5[nH]ccc5c4)c3)CC2)=C(c2ccc(Cl)cc2)C1` [Example 376, N-{[4-({2-[4-(aminosulfonyl)phenyl]ethyl}amino)-3-nitrophenyl]sulfonyl}-4-(4-{[2-(4-chlorophenyl)-4,4-dimethylcyclohex-1-en-1-yl]methyl}piperazin-1-yl)-2-(1H-indol-5-yloxy)benzamide], the EC50 in test [1] is > 500 nM. In addition, the inhibitory constant (Ki) in test [2] was > 660 nM; in test [3], 22.4 nM.

As to `CC1(C)CCC(CN2CCN(c3ccc(C(=O)NS(=O)(=O)c4ccc(NCCCn5ccnc5)c([N+](=O)[O-])c4)c(Oc4ccc5[nH]ccc5c4)c3)CC2)=C(c2ccc(Cl)cc2)C1` [Example 377, 4-(4-{[2-(4-chlorophenyl)-4,4-dimethylcyclohex-1-en-1-yl]methyl}piperazin-1-yl)-N-[(4-{[3-(1H-imidazol-1-yl)propyl]amino}-3-nitrophenyl)sulfonyl]-2-(1H-indol-5-yloxy)benzamide], the EC50 in test [1] stood at 85.7 nM. Besides, the results for the inhibitory constant (Ki) in test [2] and in test [3] were 325 nM and 0.14 nM, respectively.

As for `C[C@H](Nc1ccc(S(=O)(=O)NC(=O)c2ccc(N3CCN(CC4=C(c5ccc(Cl)cc5)CC(C)(C)CC4)CC3)cc2Oc2ccc3[nH]ccc3c2)cc1[N+](=O)[O-])c1ccccc1` [Example 378, 4-(4-{[2-(4-chlorophenyl)-4,4-dimethylcyclohex-1-en-1-yl]methyl}piperazin-1-yl)-2-(1H-indol-5-yloxy)-N-[(3-nitro-4-{[(1S)-1-phenylethyl]amino}phenyl)sulfonyl]benzamide], in test [1], the concentration for a half-maximal effect (EC50) is > 500 nM. Moreover, the Ki is > 660 nM in test [2] and 63 nM in test [3].
